Columns and labels:
BRK = BRK (Homo sapiens, UniProt Q13882); assay: Kinase profiling (ProQinase 33PanQinase Activity Assay), BRK; type: biochemical; conditions: read-out: residual activity, BRK
Protocol: (§1) The kinase profiling of compound 1-08 at 10 and 50 μM was performed by ProQinase GmbH (Freiburg, Germany). A radiometric protein kinase assay (^33PanQinase® Activity Assay) and the non-radiometric ADP-Glo™ Assay (Promega, Madison, Wis., USA) were used for measuring kinase activity of 387 protein kinases and 13 lipid kinases, respectively. The results are shown in Table 3 (only the top 10 kinases are listed, and the selectivity score describes the portion of kinases inhibited more than 50% in relation to all tested kinases).

CSK = CSK (Homo sapiens, UniProt P41240); assay: Kinase profiling (ProQinase 33PanQinase Activity Assay), CSK; type: biochemical; conditions: read-out: residual activity, CSK
Protocol: as §1

RON = RON (Homo sapiens, UniProt Q04912); assay: Kinase profiling (ProQinase 33PanQinase Activity Assay), RON; type: biochemical; conditions: read-out: residual activity, RON
Chain of RON (Q04912 25-1400): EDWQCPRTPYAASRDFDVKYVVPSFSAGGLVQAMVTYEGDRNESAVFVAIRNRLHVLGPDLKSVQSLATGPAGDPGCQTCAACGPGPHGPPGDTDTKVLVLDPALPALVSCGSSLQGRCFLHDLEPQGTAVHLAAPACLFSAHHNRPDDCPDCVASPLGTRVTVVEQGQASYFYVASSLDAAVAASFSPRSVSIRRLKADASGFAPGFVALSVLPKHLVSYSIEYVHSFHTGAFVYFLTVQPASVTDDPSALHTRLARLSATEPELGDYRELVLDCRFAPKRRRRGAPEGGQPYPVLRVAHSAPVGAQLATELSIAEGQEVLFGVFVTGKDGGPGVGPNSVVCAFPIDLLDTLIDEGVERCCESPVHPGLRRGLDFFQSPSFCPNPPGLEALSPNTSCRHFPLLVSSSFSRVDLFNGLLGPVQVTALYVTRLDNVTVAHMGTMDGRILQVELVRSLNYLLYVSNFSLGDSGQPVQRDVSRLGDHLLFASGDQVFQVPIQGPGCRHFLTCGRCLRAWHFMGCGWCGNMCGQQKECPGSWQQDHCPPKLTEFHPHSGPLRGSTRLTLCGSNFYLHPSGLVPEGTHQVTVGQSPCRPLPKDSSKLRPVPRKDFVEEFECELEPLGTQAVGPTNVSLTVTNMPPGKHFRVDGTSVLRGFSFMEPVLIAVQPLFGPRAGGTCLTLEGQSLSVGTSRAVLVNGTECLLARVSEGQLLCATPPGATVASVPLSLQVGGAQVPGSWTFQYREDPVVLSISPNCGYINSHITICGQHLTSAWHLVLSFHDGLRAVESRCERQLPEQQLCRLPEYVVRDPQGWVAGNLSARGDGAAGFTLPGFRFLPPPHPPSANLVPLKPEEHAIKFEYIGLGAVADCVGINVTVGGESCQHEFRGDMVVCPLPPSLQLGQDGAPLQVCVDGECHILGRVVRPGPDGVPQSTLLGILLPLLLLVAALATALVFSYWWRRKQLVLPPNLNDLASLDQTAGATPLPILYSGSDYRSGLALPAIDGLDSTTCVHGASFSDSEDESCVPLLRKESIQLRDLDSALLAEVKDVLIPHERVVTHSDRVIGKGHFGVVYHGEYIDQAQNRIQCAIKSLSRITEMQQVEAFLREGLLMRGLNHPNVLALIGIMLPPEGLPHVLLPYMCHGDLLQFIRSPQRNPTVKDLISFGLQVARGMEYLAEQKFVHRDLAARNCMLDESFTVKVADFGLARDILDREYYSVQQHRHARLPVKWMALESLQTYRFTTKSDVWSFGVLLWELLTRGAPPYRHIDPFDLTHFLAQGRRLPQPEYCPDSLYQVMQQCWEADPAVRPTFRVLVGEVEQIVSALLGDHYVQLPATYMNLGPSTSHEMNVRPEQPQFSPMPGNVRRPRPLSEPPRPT
Protocol: as §1

SRC = SRC (Homo sapiens, UniProt P12931); assay: Kinase profiling (ProQinase 33PanQinase Activity Assay), SRC; type: biochemical; conditions: read-out: residual activity, SRC
Chain of SRC (P12931 whole entry): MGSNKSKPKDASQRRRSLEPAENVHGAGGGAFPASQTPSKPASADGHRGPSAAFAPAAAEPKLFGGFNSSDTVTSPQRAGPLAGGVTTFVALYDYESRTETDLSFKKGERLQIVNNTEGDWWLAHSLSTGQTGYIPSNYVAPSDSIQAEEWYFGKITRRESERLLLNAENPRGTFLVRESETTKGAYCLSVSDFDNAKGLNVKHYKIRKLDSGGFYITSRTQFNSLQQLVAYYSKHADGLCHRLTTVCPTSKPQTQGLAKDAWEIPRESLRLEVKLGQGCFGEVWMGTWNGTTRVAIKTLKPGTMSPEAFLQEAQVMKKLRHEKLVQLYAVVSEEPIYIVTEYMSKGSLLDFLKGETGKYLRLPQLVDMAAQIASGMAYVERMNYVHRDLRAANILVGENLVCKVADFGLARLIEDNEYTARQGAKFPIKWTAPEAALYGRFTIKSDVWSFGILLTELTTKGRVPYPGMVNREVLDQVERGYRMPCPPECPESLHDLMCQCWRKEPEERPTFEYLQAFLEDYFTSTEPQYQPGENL
Protocol: as §1

[1] = target: T1, (Homo sapiens, UniProt P43403); assay: Kinase profiling (ProQinase 33PanQinase Activity Assay), ZAP90; type: biochemical; conditions: read-out: residual activity, ZAP90
T1 sequence (P43403 1-619): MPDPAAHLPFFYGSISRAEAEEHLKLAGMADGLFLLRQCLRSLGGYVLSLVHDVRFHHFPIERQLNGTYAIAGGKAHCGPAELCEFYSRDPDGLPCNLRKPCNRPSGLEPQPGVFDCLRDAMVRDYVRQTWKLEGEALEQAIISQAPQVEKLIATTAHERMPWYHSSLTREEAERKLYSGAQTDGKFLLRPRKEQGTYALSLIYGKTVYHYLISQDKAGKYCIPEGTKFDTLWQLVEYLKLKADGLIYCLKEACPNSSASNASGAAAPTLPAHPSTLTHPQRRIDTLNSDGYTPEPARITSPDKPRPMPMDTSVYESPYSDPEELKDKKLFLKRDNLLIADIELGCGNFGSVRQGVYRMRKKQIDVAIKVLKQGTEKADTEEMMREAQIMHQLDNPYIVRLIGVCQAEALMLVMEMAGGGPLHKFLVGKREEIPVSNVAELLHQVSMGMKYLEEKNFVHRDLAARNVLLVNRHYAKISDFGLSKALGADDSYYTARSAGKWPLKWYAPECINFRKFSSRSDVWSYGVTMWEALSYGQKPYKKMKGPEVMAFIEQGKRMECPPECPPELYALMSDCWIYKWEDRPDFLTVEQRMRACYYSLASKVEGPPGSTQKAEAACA
Protocol: as §1

[2] = test system: 387 protein kinases and 13 lipid kinases; assay: Kinase profiling, selectivity score over the whole panel; type: biochemical
Protocol: as §1

Porcine brain tubulin = target: T2, Porcine brain tubulin (Sus scrofa, UniProt P02550+P02554); assay: Fluorescence-based tubulin polymerisation assay; type: biochemical; conditions: 37° C., FIG. 10A
T2 construct: purchased Cytoskeleton, Colo., USA (Tubulin Polymerisation Assay kit); host or cells: porcine brain (tissue-purified)
T2 sequence (P02550 whole entry): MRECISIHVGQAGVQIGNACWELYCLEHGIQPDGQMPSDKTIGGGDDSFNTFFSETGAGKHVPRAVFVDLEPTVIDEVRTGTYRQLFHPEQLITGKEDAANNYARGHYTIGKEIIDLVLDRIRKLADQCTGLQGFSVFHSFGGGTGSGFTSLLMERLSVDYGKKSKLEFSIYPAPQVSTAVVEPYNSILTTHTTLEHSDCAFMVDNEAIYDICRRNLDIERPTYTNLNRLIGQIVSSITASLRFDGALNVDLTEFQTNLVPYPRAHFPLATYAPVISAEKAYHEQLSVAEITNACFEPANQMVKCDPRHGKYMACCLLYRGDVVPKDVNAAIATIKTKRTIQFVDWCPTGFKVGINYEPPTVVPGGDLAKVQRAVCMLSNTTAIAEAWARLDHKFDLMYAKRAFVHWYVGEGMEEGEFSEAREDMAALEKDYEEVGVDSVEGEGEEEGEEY
T2 sequence (P02554 whole entry): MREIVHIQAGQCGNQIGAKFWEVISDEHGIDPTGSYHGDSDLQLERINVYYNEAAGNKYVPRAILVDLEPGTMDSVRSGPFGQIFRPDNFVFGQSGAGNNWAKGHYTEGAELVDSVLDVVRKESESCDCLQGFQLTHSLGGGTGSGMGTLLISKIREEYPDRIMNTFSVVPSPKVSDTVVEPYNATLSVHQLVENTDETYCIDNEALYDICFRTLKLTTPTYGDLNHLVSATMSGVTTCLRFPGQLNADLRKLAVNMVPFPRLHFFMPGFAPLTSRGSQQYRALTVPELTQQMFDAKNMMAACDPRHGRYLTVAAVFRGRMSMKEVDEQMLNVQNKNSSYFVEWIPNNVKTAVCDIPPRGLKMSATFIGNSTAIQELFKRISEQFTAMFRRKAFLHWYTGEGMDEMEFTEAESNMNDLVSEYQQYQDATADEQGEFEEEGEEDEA
Protocol: (§2) FIGS. 10A-10D. […] (10A) Compound 1-08 inhibits tubulin polymerisation in vitro. Data are expressed as mean from at least 3 independent experiments; each data point was performed in triplicates. (10B) U87 cells treated with compound 1-08 (24 h) were stained with Alexa488-labelled anti-β-tubulin antibody (green) or DAPI (blue). Treatment profoundly disturbed the microtubule network and caused formation of multinucleated cell (white arrows). White scale bar represents 50 μm. Multinucleated cells were manually counted and at least 200 cells were counted for each sample. Data in the bar graph (10C) are expressed as mean±SEM (n=3; * P<0.05, *** P<0.001; 1-way ANOVA followed by Newman-Keuls posttest). (10D) U87 cells were treated with compound 1-08 (48 h), tubulin and DNA were stained as in (10B). Treatment with 1-08 caused defective mitotic spindle formation. Representative images from 3 independent experiments are shown. White scale bar represents 2 μm.
(§3) The effect of compound 1-08 on tubulin polymerisation and mitotic spindle formation was also investigated. The fluorescence-based tubulin polymerisation assay was conducted in the final volume of 55 μL using the Tubulin Polymerisation Assay kit (Cytoskeleton, Colo., USA) as per the manufacturer's instructions. Porcine brain tubulin was incubated with test compounds (paclitaxel, vinblastine and compound 1-08) at 37° C. and fluorescence was measured using FLUOstar Omega microplate reader (BMG Labtech, Ortenberg, Germany; excitation at 355 nm and emission at 460 nm). […] To test whether compound 1-08 alters microtubules in vivo, U87 glioblastoma cells were treated with compound 1-08 and the effect on the microtubules was determined by immunofluorescence staining of β-tubulin. […] The consequence of microtubule depolymerisation induced by compound 13 was disrupted spindle assembly (FIG. 10D). In untreated U87 cells undergoing mitosis, microtubules are assembled into bipolar spindles (control images).

U87 glioblastoma cells = assay: Immunofluorescence staining of β-tubulin in treated U87 cells (microtubules, multinucleated cells, mitotic spindle); type: cell-based
Protocol: as §2, §3

U87 = assay: Annexin-FITC/7-AAD apoptosis assay, U87 cells; type: cell-based; conditions: 48 hours treatment
Protocol: FIGS. 4A-4D. […] U87 (4A-4B) and U87vIII (4C-4D) cells were treated with SC-38 for 48 hours and stained with Annexin-FITC/7-AAD. Apoptotic cells were visualized using the MUSE cell analyzer (Millipore).
FIGS. 6A-6D. […] U87 (A B) (6A-6B) and U87vIII (6C-6D) cells were treated with compound 1-08 for 48 hours and stained with Annexin-FITC/7-AAD. Apoptotic cells were visualized using the MUSE cell analyzer (Millipore). Results are means±SEM from 3 independent experiments. One-way ANOVA followed by Dunnet post-test was used to calculate statistical significance (***P<0.001).
(§4) U87 (FIGS. 4, A-B) and U87vIII (FIG. 4, C-D) cells were treated with SC-38 for 48 hours and stained with Annexin-FITC/7-AAD. Apoptotic cells were visualized using the MUSE cell analyzer (Millipore). Results are means±SEM from 3 independent experiments. One-way ANOVA followed by Dunnet post-test was used to calculate statistical significance (**P<0.01, ***P<0.001)
as §4, with “6,” for “4,”, “compound 1-08” for “SC-38”, “three” for “3”, “(***P<0.001).” for “(**P<0.01, ***P<0.001)”

Chain of BRK (Q13882 whole entry): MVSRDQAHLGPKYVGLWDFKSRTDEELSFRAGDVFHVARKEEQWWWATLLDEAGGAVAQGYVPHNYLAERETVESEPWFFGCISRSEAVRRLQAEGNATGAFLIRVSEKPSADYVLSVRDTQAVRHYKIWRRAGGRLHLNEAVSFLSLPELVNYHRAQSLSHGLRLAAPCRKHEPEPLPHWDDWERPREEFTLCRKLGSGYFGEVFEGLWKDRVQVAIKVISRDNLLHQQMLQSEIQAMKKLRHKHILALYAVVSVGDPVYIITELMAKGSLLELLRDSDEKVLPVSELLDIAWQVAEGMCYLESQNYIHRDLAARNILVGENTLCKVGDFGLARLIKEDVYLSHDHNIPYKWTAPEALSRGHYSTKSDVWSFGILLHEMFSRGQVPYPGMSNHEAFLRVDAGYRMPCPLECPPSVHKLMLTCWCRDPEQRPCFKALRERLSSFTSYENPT

remaining activity at 10 µM (BRK; 10 μM compound): 74% | remaining activity at 50 µM (BRK; 50 μM compound): 29% | remaining activity at 10 µM (CSK; 10 μM compound): 89% | remaining activity at 50 µM (CSK; 50 μM compound): 21% | remaining activity at 10 µM (RON; 10 μM compound): 84% | remaining activity at 50 µM (RON; 50 μM compound): 18% | remaining activity at 10 µM (SRC; 10 μM compound): 57% | remaining activity at 50 µM (SRC; 50 μM compound): 21% | remaining activity at 10 µM ([1]; 10 μM compound): 60% | remaining activity at 50 µM ([1]; 50 μM compound): 14% | Selectivity score (portion of kinases inhibited more than 50% in relation to all tested kinases) ([2]; 10 μM compound): 0.003 | Selectivity score (portion of kinases inhibited more than 50% in relation to all tested kinases) ([2]; 50 μM compound): 0.203
SMILES: O=C(CCCc1ccc(-c2cnc3ccccc3c2)cc1)Nc1ccc(O)cc1 [Compound 1-08, N-(4-hydroxyphenyl)-4-(4-(quinolin-3-yl)phenyl)butanamide]
effect on tubulin polymerisation compared to control (Porcine brain tubulin): inhibited tubulin polymerisation in a dose-dependent manner | effect on microtubules (U87 glioblastoma cells; 1 and 5 μM, FIG. 10B): disassembly of microtubules | number of multinucleated cells (U87 glioblastoma cells; 1 and 5 μM, FIGS. 10B and 10C): dose-dependent increase in the number of multinucleated cells | mitotic spindle formation (U87 glioblastoma cells; 48 h, FIG. 10D): defective spindle formation and chromosome misalignment | apoptosis, U87 (U87): induced apoptosis

Reference: US10745355B2, “Anti-cancer compounds” (THE UNIVERSITY OF SYDNEY, priority 2015, dated 2020)
